In paper PMC5729429, “Gimatecan exerts potent antitumor activity against gastric cancer in vitro and in vivo via AKT and MAPK signaling pathways” (Journal of Translational Medicine, 2017):
Where a name gives a salt, the structure may show the parent alone.

Tests used:
[1] = system: GC patient-derived xenografts (PDX); test: Tumor growth inhibition in GC patient-derived xenograft (PDX) models; format: in vivo, NOD/SCID mice; conditions: for TGIs (%): gimatecan 0.2 mg/kg daily oral gavage, irinotecan 20 mg/kg weekly i.p., 3 weeks; for antitumor activity compared with control groups: all five xenografts
Method: Establishment and serial passaging of GC patient-derived xenografts (PDX) models were as previously described. All procedures were performed under sterile conditions at an SPF facility and carried out in accordance with the guide for the Care and Use of Laboratory Animals of the National Institutes of Health. Animal experiments were approved by an independent ethics committee of Peking University Cancer Hospital.
Five PDX tissues were subcutaneously inoculated into the flanks of 6-week-old female non-obese diabetic/severe combined immunodeficiency (NOD/SCID) mice. When tumors reached 150–250 mm^3, mice were randomized to three groups (N = 5/group) with similar tumor volumes: (1) control group (physiological saline 100 µl daily, by orally gavage), (2) gimatecan group (gimatecan 0.2 mg/kg daily, by orally gavage) and (3) irinotecan group (irinotecan 20 mg/kg via weekly intraperitoneal injection). All animals were treated for 3 weeks. Tumor size and body weight were measured twice a week, and tumor volume was calculated using the following formula: V = (L × W^2)/2 (V, volume; L, length; W, width). Tumor growth inhibition (TGI) was calculated using the following formula: TGI = 1 − ΔT/ΔC × 100% (ΔT = tumor volume changes of the drug treated group, ΔC = tumor volume changes of the control group on the final day of the study).
(§1) A PDX model was established by subcutaneously transplanting tumor tissues of a patient into NOD/SCID mice and PDX 1–5 indicated PDX models from 5 different GC patients. PDX tissues were subcutaneously inoculated into mice, and when the tumor size reached 150–250 mm^3, mice (n = 5 in each group) were treated with buffer control or inhibitors. Tumor volumes were presented as mean ± SD. The antitumor activity is depicted by tumor growth inhibition (TGI). […] (ΔT = tumor volume change of the drug-treated group, ΔC = tumor volume change of the control group on the final day of the study). *p < 0.05, **p < 0.01, ***p < 0.001. b Immunohistochemical staining for Ki-67 of xenografts on day 22 of treatment from four PDX models. The ki-67 index, marker of cell proliferation, was calculated as the proportion of positive tumor cell nuclei in all tumor cells examined and labeled in red in the images. Scale bar represents 100 µm TEXT PRINTED IN THE PICTURE: (b) Vehicle: PDX 2: 100%; PDX 3: 70%; PDX 4: 70%; PDX 5: 40% | (b) Irinotecan: PDX 2: 60%; PDX 3: 70%; PDX 4: 60%; PDX 5: 50% | (b) Gimatecan: PDX 2: 60%; PDX 3: 10%; PDX 4: 40%; PDX 5: 10% DOUBTS OF THE COPYIST ABOUT THIS PICTURE: Vehicle, PDX 3: 70% or 20% (blurred red print on the image) / Vehicle, PDX 4: 70% or 20% / Vehicle, PDX 5: 40%, first digit blurred / Irinotecan, PDX 2: 60% or 80% or 50% / Irinotecan, PDX 3: 70% or 20% / Irinotecan, PDX 4: 60% or 50% or 80% / Irinotecan, PDX 5: 50% or 60% or 30% / Gimatecan, PDX 2: 60% or 50% or 80% / Gimatecan, PDX 4: 40%, first digit blurred / The measure of the percentages in panel b is not printed in the picture

Ki-67 in GC PDX tissues = test: Immunohistochemistry staining of Ki-67 in xenograft tissues; format: in vivo, NOD/SCID mice; conditions: day 22 of treatment
Method: After mice were sacrificed, xenograft tissues were isolated, and formalin-fixed paraffin embedded (FFPE) tissue sections were prepared. After deparaffinization, hydration, endogenous peroxidase treatment, and retrieval, 4-μm-thick FFPE sections were incubated with primary antibodies (1:100) overnight at 4 °C. The signal was assayed after incubation with IgG-HRP polymer (ZSGB-BIO, Beijing, China) and diaminobenzidine substrate. Sections were interpreted by pathologists from the Department of Pathology of Peking University Cancer Hospital who were blinded to this study. The scoring standard of Ki-67 was consistent with a previous report.
as §1

DNA TopI = test: Western blot of DNA TopI expression in GC cells; format: cell-based, human; conditions: SNU-1, HGC27 and NCI-N87; 48 h; gimatecan at 100 nM or more; irinotecan even at high concentrations
Method: SNU-1, HGC27 and NCI-N87 cells were starved in serum-free medium overnight, exposed to inhibitors for 48 h and harvested at 70–80% confluence. Total protein was extracted from cells or xenograft tissues on ice, using RIPA Lysis Buffer (Beyotime, Shanghai, China) supplemented with complete protease inhibitor and phosphatase inhibitor cocktail (Roche, Basel, Switzerland). Protein concentration was measured using a BCA Protein Assay Kit (Beyotime, Shanghai, China), and 50 μg protein from each sample was separated by 10% SDS-PAGE. After transfer to nitrocellulose membranes (GE Healthcare, Piscataway, NJ), samples were incubated with corresponding primary antibodies diluted in 5% BSA at 4 °C overnight and then with secondary antibodies at room temperature for 1 h. Proteins were visualized with a chemiluminescent detection system (GE Healthcare), using ECL plus Western blot reagents (GE Healthcare). Western-blotting bands were quantified and normalized by ImageJ software.
Cells were starved in serum-free medium overnight, exposed to gimatecan or irinotecan for 48 h and harvested at 70–80% confluence. Total protein of SNU-1 and NCI-N87 was extracted and the expression of TopI, pAKT, pMEK, pERK, p-p38 MAPK and pJNK2 were assessed by western-blotting followed by quantification and normalization by ImageJ. All data are mean ± SD of three independent experiments. Compared with controls, *p < 0.05

Row | Structure (SMILES) | TGIs (%) ([1]; PDX model 1) | TGIs (%) ([1]; PDX model 2) | TGIs (%) ([1]; PDX model 3) | TGIs (%) ([1]; PDX model 4) | TGIs (%) ([1]; PDX model 5) | antitumor activity compared with control groups [1] | Ki-67 (%) (Ki-67 in GC PDX tissues; PDX model 2, control 100) | Ki-67 (%) (Ki-67 in GC PDX tissues; PDX model 3, control 70) | Ki-67 (%) (Ki-67 in GC PDX tissues; PDX model 4, control 70) | Ki-67 (%) (Ki-67 in GC PDX tissues; PDX model 5, control 40) | expression of DNA TopI (DNA TopI)
1 | CCc1c2c(nc3ccc(OC(=O)N4CCC(N5CCCCC5)CC4)cc13)-c1cc3c(c(=O)n1C2)COC(=O)[C@]3(O)CC [Irinotecan, irinotecan hydrochloride] | 75.4% | 76.1% | 24.1% | 15.1% | 40.6% | significant antitumor activity | 60% | 70% | 60% | 50% | little effect
2 | CC[C@@]1(O)C(=O)OCc2c1cc1n(c2=O)Cc2c-1nc1ccccc1c2/C=N/OC(C)(C)C [Gimatecan, 7-t-butoxyiminomethylcamptothecin] | 110.1% | 106.6% | 84.4% | 91.7% | 108.7% | significant antitumor activity | 60% | 10% | 40% | 10% | significantly inhibited
